Reference: patent US20110275673A1, “INHIBITORS OF SPHINGOSINE KINASE 1” (priority 2008, published 2011)

Target: T1, SPHK-1 (Homo sapiens, UniProt Q9NYA1)
T1 construct: purchased BPS Bioscience
Assay: Reporter Assay: sphingosine kinase conversion of fluorescein-labeled sphingosine, read on Lab Chip 3000
Format: biochemical
Conditions: 2 μM Fl-sphingosine, 25 μM ATP, 300 ng/ml SK1, 1 hour at room temperature; from percent conversion of substrate to product; read-out: SPHK-1 IC50 (n =)
Description: Sphingosine kinase is a 49 kDa enzyme that catalyzes the formation of sphingosine-1-phosphate (S-1-P) from sphingosine.
Fluorescein labeled sphingosine was obtained from Echelon Biosciences (S-100F). Buffer reagents (1 M Hepes, 10 triton x-100, 100% glycerol, dithiothreitol 1 M MgCl2, ATP, 500 mM EDTA and DMSO) were purchased from Sigma. Coating reagent (CR-3), was obtained from Caliper Life Sciences.
0.05% Triton X-100, 2.5% glycerol, 0.1% CR-3, and 0,6% DMSO. Termination butler included 100 mM Hepes (pH 7.5), 40 mM EDTA, 0.05% Triton X-100, 2.5% glycerol, 0.3% CR-3, and 0.6% DMSO.
All assay components were made in reaction buffer. […] The assaylvas allowed to incubate at room temperature sealed and protected from light for 1 hour.
After 1 hour, 10 μl of termination buffer was added to terminate, the reaction, and the plate was read on a Lab Chip 3000. The plate was read for one cycle. The Lab Chip separated substrate and product based on charge.
Results were calculated based on percent conversion of substrate to product using the following formula: […]
Percent inhibition and IC50's for compounds of the invention were determined using the percent conversion values obtained horn the Lab Chip.

T1 sequence (Q9NYA1 whole entry): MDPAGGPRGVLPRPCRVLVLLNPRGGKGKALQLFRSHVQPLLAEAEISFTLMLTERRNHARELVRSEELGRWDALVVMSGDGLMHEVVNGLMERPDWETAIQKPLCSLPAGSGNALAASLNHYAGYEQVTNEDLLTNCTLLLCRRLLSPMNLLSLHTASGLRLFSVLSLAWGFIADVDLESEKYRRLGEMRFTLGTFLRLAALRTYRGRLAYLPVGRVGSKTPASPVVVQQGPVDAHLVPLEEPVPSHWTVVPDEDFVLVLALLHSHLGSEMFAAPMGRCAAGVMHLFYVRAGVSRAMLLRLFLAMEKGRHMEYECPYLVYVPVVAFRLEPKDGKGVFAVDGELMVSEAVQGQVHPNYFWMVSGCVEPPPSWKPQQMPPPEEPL

## CCCCCCCCCc1ccc(NC(=O)C(N)CO)cc1 (racemic) [Example 13, (+/−)-2-Amino-3-hydroxy-N-(4-nonylphenyl) propanamide]
  IC50: 3800 nM

## CCCCCCCCCCc1ccc(NC(=O)[C@H]2NCCC[C@H]2O)cc1 (relative stereo) [Example 45, cis-N-(4-decylphenyl)-3-hydroxy-piperidine-2-carboxamide]
  IC50: > 10000 nM

## CCCCCCCCc1ccc(NC(=O)[C@H](N)CO)cc1 [Example 3, (R)-2-Amino-3-hydroxy-N-(4-octylphenyl) propanamide]
  IC50: 5000 nM

## CCCCCCCCc1ccc(NC(=O)[C@@H](N)CO)cc1 [Example 4, (S)-2-Amino-3-hydroxy-N-(4-octylphenyl) propanamide]
  IC50: 4300 nM

## CCCCCCCCCCc1ccc(NC(=O)[C@@H](N)[C@@H](C)O)cc1 [Example 6, (2S,3R)-2-Amino-N-(4-decylphenyl)-3-hydroxy-butanamide]
  IC50: 46 nM

## CCCCCCCCCCCc1ccc(NC(=O)[C@@H](N)[C@@H](C)O)cc1 [Example 7, (2S,3R)-2-Amino-3-hydroxy-N-(4-undecylphenyl) butanamide]
  IC50: 110 nM

## CCCCCCCCCCCCc1ccc(NC(=O)[C@@H](N)[C@@H](C)O)cc1 [Example 8, (2S,3R)-2-Amino-N-(4-dodecylphenyl)-3-hydroxy-butanamide]
  IC50: 190 nM

## CCCCCCCCc1ccc(NC[C@H]2NCC[C@@H]2O)cc1 [Example 9, (2R,3S)-2-((4-Octylphenyl-amino)methyl) pyrrolidin-3-ol]
  IC50: 740 nM

## CCCCCCCCc1ccc(NC[C@@H](N)CO)cc1 [Example 10, (R)-2-Amino-3-(4-octylphenyl-amino) propan-1-ol]
  IC50: 5000 nM

## CCCCCCCCc1cccc(NC(=O)[C@@H](N)[C@@H](C)O)c1 [Example 11, (2S,3R)-2-Amino-3-hydroxy-N-(3-octylphenyl) butanamide]
  IC50: 2900 nM

## CCCCCCCOc1ccc(NC(=O)[C@@H](N)[C@@H](C)O)cc1 [Example 12, (2S,3R)-2-Amino-N-(4-(heptyloxy)phenyl)-3-hydroxy-butanamide]
  IC50: 1500 nM

## CCCCCCCCCc1ccc(NC(=O)[C@@H](N)[C@@H](C)O)cc1 [Example 14, (2S,3R)-2-Amino-3-hydroxy-N-(4-nonylphenyl) butanamide]
  IC50: 180 nM

## CCCCCCOCc1ccc(NC(=O)[C@@H](N)[C@@H](C)O)cc1 [Example 15, (2S,3R)-2-Amino-N-(4-(hexyloxymethyl)phenyl)-3-hydroxy-butanamide]
  IC50: 8200 nM

## CC(C)CCCCCCc1ccc(NC(=O)[C@@H](N)[C@@H](C)O)cc1 [Example 16, (2S,3R)-2-Amino-3-hydroxy-N-(4-(7-methyloctyl)phenyl) butanamide]
  IC50: 150 nM

## C[C@@H](O)[C@H](N)C(=O)Nc1ccc(CCCCCCCOc2ccc(F)cc2)cc1 [Example 17, (2S,3R)-2-Amino-N-(4-(7-(4-fluorophenoxy)heptyl)phenyl)-3-hydroxy-butanamide]
  IC50: 3600 nM

## CCCCCCCCOc1ccc(NC(=O)[C@@H](N)[C@@H](C)O)cc1 [Example 18, (2S,3R)-2-Amino-3-hydroxy-N-(4-(octyloxy)phenyl) butanamide]
  IC50: 460 nM

## CCCCCCOCc1ccc(NC(=O)[C@H]2NCC[C@@H]2O)cc1 [Example 19, (2S,3S)-N-(4-(Hexyloxy-methyl)phenyl)-3-hydroxy-pyrrolidine-2-carboxamide]
  IC50: 990 nM

## CCCCCCCCc1ccc(NC(=O)[C@H]2NC[C@H](O)[C@@H]2O)cc1 [Example 20, (2S,3R,4S)-3,4-Dihydroxy-N-(4-octylphenyl) pyrrolidine-2-carboxamide]
  IC50: 8300 nM

## CCCCCCCCOCc1ccc(NC(=O)[C@H]2NCC[C@@H]2O)cc1 [Example 21, (2S,3S)-3-Hydroxy-N-(4-(octyloxymethyl)phenyl) pyrrolidine-2-carboxamide]
  IC50: 4.9 nM

## C[C@@H](O)[C@H](N)C(=O)Nc1ccc(CCCCCOc2ccc(F)cc2)cc1 [Example 22, (2S,3R)-2-Amino-N-(4-(5-(4-fluorophenoxy)pentyl)phenyl)-3-hydroxy-butanamide]
  IC50: 3200 nM

## O=C(Nc1ccc(CCCOc2ccc(F)cc2)cc1)[C@H]1NCC[C@@H]1O [Example 23, (2S,3S)-N-(4-(3-(4-Fluorophenoxy)propyl)phenyl)-3-hydroxy-pyrrolidine-2-carboxamide]
  IC50: 1500 nM

## O=C(Nc1ccc(CCCCCOc2ccc(F)cc2)cc1)[C@H]1NCC[C@@H]1O [Example 24, (2S,3S)-N-(4-(5-(4-Fluorophenoxy)pentyl)phenyl)-3-hydroxy-pyrrolidine-2-carboxamide]
  IC50: 190 nM

## O=C(Nc1ccc(CCCCCCCOc2ccc(F)cc2)cc1)[C@H]1NCC[C@@H]1O [Example 25, (2S,3S)-N-(4-(7-(4-Fluorophenoxy)heptyl)phenyl)-3-hydroxy-pyrrolidine-2-carboxamide]
  IC50: 370 nM

## CCCCCCCCc1ccc(NC(=O)[C@H]2NCC[C@@H]2O)cn1 [Example 26, (2S,3S)-3-Hydroxy-N-(6-octylpyridin-3-yl) pyrrolidine-2-carboxamide]
  IC50: 3000 nM

## CCCCCCCCc1ccc([C@H](C)NC(=O)[C@H]2NCC[C@@H]2O)cc1 [Example 27, (2S,3S)-3-Hydroxy-N-((S)-1-(4-octylphenyl)ethyl) pyrrolidine-2-carboxamide]
  IC50: 190 nM

## O=C(NCc1ccc(CCCCCOc2ccc(F)cc2)cc1)[C@H]1NCC[C@@H]1O [Example 28, (2S,3S)-N-(4-(5-(4-Fluorophenoxy)pentyl)benzyl)-3-hydroxy-pyrrolidine-2-carboxamide]
  IC50: 4700 nM

## CCCCCCCCc1ccc(NC(=O)[C@@H](N)[C@@H](C)O)cc1 [Example 29, (2S,3R)-2-Amino-3-hydroxy-N-(4-octylphenyl) butanamide]
  IC50: 870 nM

## CCCCCCCCc1ccc(NC(=O)[C@H](N)[C@H](C)O)cc1 [Example 30, (2R,3S)-2-Amino-3-hydroxy-N-(4-octylphenyl) butanamide]
  IC50: 2100 nM

## CCCCCCCCc1ccc(NC(=O)[C@H](N)[C@@H](C)O)cc1 [Example 31, (2R,3R)-2-Amino-3-hydroxy-N-(4-octylphenyl) butanamide]
  IC50: 1600 nM

## CCCCCCCCc1ccc(NC(=O)[C@@H](N)[C@H](C)O)cc1 [Example 32, (2S,3S)-2-Amino-3-hydroxy-N-(4-octylphenyl) butanamide]
  IC50: 1100 nM

## CCCCC(=O)CCCCCc1ccc(NC(=O)[C@@H](N)[C@@H](C)O)cc1 [Example 33, (2S,3R)-2-amino-3-hydroxy-N-(4-(6-oxodecyl)phenyl) butanamide]
  IC50: 6100 nM

## CCCCCCC(O)CCCc1ccc(NC(=O)[C@@H](N)[C@@H](C)O)cc1 (stereo partly drawn) [Example 35, (2S,3R)-2-amino-3-hydroxy-N-(4-(4-hydroxydecyl)phenyl) butanamide]
  IC50: 6900 nM

## CCCCCCCCc1ccc(CNC(=O)[C@H]2NCC[C@@H]2O)cc1 [Example 36, (2S,3S)-3-hydroxy-N-(4-octylbenzyl) pyrrolidine-2-carboxamide]
  IC50: 2100 nM

## CCCCCCCc1ccc(CNC(=O)[C@H]2NCC[C@@H]2O)cc1 [Example 37, (2S,3S)-N-(4-heptylbenzyl)-3-hydroxy-pyrrolidine-2-carboxamide]
  IC50: 470 nM

## CCCCC(=O)CCCCCc1ccc(NC(=O)[C@H]2NCC[C@@H]2O)cc1 [Example 38, (2S,3S)-3-hydroxy-N-(4-(6-oxodecyl)phenyl) pyrrolidine-2-carboxamide]
  IC50: 86 nM

## CCCCCCSCc1ccc(NC(=O)[C@H]2NCC[C@@H]2O)cc1 [Example 39, (2S,3S)-N-(4-(hexylthiomethyl)phenyl)-3-hydroxy-pyrrolidine-2-carboxamide]
  IC50: 110 nM

## CCCCCCSCCc1ccc(NC(=O)[C@H]2NCC[C@@H]2O)cc1 [Example 40, (2S,3S)-N-(4-(2-(hexylthio)ethyl)phenyl)-3-hydroxy-pyrrolidine-2-carboxamide]
  IC50: 7 nM

## CCCCCCSCCCCc1ccc(NC(=O)[C@H]2NCC[C@@H]2O)cc1 [Example 41, (2S,3S)-N-(4-(4-(hexylthio)butyl)phenyl)-3-hydroxy-pyrrolidine-2-carboxamide]
  IC50: 2 nM

## CCCCCCCC(O)CCCc1ccc(NC(=O)[C@H]2NCC[C@@H]2O)cc1 (stereo partly drawn) [Example 42, (2S,3S)-3-hydroxy-N-(4-(4-hydroxy-undecyl)phenyl) pyrrolidine-2-carboxamide]
  IC50: 120 nM

## CCCCCCCSCc1ccc(CNC(=O)[C@H]2NCC[C@@H]2O)cc1 [Example 43, (2S,3S)-N-(4-(heptylthio-methyl)benzyl)-3-hydroxy-pyrrolidine-2-carboxamide]
  IC50: 180 nM

## CCCCCCCCc1ccc(CCNC(=O)[C@H]2NCC[C@@H]2O)cc1 [Example 44, (2S,3S)-3-hydroxy-N-(4-octylphenethyl) pyrrolidine-2-carboxamide]
  IC50: 6500 nM

## CCCCCCS(=O)(=O)Cc1ccc(NC(=O)[C@H]2NCC[C@@H]2O)cc1 [Example 46, (2S,3S)-N-(4-(hexylsulfonyl-methyl)phenyl)-3-hydroxy-pyrrolidine-2-carboxamide]
  IC50: > 10000 nM

## CCCCCCCCc1ccc(NC(=O)[C@H]([C@H](C)O)N(CCC)CCC)cc1 [Example 47, (2S,3S)-2-(dipropyl-amino)-3-hydroxy-N-(4-octylphenyl) butanamide]
  IC50: > 1000 nM

## CCCCCCCCc1ccc(NC(=O)[C@@H](NCC2CCCCC2)[C@H](C)O)cc1 [Example 48, (2S,3S)-2-(cyclohexyl-methyl-amino)-3-hydroxy-N-(4-octylphenyl) butanamide]
  IC50: > 1000 nM
